Among the data in patent US20230065740A1, “CYCLIN-DEPENDENT KINASE INHIBITORS” (SPV THERAPEUTICS INC., priority 2018, published 2023) are IC50 values, retold here.

One assay has as its target T1, CDK2-CYCLINA (Homo sapiens, UniProt P24941).
T1 construct: purchased Millipore
The assay is described as follows: Microfluidic LabChip kinase inhibition assay, CDK2-CyclinA. Format: biochemical. Particulars: 50 μM ATP.

The next assay addresses T2, CDK9-CYCLINT1 (Homo sapiens, UniProt P50750).
T2 construct: purchased Carna
In words: Microfluidic LabChip kinase inhibition assay, CDK9-CyclinT1. Format: biochemical.

In the next assay the target is CDK1/B (Homo sapiens, UniProt P06493). In words: Additional inhibition assay, CDK1/B. Format: biochemical.
Chain of CDK1/B (P06493 whole entry): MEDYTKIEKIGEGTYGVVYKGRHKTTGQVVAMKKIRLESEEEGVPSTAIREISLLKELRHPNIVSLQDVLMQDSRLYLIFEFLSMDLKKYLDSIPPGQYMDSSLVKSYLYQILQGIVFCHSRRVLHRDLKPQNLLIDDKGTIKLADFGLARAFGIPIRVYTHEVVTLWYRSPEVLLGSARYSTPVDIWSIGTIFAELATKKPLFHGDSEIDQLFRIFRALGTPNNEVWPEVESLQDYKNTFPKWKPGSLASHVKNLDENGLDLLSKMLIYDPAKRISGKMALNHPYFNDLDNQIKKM
Chain of CDK1/B (P14635 whole entry partner): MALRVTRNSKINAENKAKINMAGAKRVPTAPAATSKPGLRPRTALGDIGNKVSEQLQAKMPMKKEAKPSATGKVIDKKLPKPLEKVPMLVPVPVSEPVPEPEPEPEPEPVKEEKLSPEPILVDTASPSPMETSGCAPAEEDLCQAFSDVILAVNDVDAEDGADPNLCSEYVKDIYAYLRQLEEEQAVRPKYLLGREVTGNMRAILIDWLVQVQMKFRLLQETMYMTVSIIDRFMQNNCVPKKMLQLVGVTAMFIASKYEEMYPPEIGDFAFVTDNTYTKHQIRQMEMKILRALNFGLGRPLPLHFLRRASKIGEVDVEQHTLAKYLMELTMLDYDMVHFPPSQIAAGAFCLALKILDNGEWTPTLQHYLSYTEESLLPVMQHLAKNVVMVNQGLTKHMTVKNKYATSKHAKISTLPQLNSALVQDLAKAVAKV
A further assay addresses CDK7 CyclinH (Homo sapiens, UniProt P50613). In words: Additional inhibition assay, CDK7 CyclinH. Format: biochemical.
A further assay deals with CDK4-CYCLIND1 (Homo sapiens, UniProt P11802). In words: Microfluidic LabChip kinase inhibition assay, CDK4-CyclinD1. Particulars: 200 μM ATP.
Chain of CDK4-CYCLIND1 (P11802 whole entry): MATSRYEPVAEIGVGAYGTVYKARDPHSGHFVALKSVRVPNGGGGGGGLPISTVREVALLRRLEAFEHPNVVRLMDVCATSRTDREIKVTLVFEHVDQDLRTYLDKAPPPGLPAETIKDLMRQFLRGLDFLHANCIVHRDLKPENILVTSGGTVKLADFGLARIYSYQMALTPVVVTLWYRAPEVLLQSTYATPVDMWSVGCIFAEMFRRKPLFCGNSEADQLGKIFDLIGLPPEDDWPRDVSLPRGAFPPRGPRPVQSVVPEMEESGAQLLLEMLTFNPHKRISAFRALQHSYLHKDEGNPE
Chain of CDK4-CYCLIND1 (P24385 whole entry partner): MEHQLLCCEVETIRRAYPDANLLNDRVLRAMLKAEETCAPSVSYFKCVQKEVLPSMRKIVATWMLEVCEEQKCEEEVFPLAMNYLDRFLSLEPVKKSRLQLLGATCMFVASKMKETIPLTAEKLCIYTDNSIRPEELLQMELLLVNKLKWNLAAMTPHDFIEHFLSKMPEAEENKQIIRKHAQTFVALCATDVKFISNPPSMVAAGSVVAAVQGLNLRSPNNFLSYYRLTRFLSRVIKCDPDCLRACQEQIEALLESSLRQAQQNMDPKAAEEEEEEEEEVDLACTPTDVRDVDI
The target of the next assay is T3, CDK6-CYCLIND3 (Homo sapiens, UniProt Q00534).
T3 construct: purchased Carna
T3 sequence (Q00534 whole entry): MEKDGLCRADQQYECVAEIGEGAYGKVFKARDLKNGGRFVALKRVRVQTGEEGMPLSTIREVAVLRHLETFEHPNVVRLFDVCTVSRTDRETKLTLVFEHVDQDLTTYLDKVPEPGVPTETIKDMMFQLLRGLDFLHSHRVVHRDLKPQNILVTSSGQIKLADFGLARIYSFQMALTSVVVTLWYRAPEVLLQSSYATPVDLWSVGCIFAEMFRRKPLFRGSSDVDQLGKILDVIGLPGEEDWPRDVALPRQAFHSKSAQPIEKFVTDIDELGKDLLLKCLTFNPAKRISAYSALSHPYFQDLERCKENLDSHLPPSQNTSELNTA
T3 sequence (P30281 whole entry partner): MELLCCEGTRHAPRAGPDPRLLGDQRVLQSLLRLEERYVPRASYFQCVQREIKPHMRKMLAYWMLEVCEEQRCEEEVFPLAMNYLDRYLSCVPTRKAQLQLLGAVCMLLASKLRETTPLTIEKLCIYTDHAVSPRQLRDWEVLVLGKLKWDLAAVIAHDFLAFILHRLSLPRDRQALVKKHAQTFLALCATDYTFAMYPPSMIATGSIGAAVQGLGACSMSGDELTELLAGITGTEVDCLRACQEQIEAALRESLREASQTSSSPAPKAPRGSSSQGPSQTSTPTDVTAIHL
In words: Microfluidic LabChip kinase inhibition assay, CDK6-CyclinD3. Format: biochemical. The following applies: 300 μM ATP.

[1] abbreviates: CDK4 CyclinD1 IC50 (μM), Table 3a, second value in parentheses on the next line.
Where [2] appears, read: CDK4 CyclinD1 IC50 (μM), Table 3b, second value in parentheses on the next line.
[3] abbreviates: Table 3a, 10 μM ATP, read-out: CDK9 CyclinT1 IC50.
Where [4] appears, read: Table 2, 2 nM enzyme, read-out: CDK6 IC50.
Setting [5] is: CDK4 IC50 (μM), Table 2, 1 nM enzyme.
Setting [6] is: Table 3a, read-out: CDK6 CyclinD3 IC50.
Where [7] appears, read: Table 3b, read-out: CDK6 CyclinD3 IC50.

Values joined by “and” are separate entries in the source; they are usually repeats but may differ in a detail not shown here. Identical values can stand only once. Like-named read-outs stand apart in the source and are kept apart here.

Chain of CDK7 CyclinH (P50613 whole entry): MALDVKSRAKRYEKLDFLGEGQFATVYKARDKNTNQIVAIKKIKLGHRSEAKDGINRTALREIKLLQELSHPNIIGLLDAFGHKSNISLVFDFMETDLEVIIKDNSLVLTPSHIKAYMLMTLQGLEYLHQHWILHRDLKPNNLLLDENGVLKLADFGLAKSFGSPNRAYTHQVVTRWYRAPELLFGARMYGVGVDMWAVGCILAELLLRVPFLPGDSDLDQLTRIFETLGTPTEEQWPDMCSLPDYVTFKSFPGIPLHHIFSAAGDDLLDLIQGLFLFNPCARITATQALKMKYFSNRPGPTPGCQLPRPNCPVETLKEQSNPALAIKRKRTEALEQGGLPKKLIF
Chain of CDK7 CyclinH (P51946 whole entry partner): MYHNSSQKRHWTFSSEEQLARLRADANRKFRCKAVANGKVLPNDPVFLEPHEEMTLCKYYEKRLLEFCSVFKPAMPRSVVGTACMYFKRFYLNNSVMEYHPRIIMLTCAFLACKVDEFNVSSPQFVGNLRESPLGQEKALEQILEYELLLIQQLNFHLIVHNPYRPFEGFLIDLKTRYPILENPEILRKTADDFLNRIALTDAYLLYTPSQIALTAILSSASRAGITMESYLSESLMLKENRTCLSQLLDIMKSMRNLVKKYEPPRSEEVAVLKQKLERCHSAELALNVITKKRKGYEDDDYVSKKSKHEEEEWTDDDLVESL
Chain of CDK7 CyclinH (P51948 whole entry partner): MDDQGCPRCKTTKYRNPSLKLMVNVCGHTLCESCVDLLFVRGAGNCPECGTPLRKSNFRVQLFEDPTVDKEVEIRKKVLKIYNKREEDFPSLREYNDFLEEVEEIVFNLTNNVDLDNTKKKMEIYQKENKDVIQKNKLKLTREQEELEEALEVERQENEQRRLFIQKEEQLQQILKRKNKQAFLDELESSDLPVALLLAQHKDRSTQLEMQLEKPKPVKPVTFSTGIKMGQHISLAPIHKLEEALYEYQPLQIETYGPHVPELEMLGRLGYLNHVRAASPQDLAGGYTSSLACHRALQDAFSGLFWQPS
T2 sequence (P50750 whole entry): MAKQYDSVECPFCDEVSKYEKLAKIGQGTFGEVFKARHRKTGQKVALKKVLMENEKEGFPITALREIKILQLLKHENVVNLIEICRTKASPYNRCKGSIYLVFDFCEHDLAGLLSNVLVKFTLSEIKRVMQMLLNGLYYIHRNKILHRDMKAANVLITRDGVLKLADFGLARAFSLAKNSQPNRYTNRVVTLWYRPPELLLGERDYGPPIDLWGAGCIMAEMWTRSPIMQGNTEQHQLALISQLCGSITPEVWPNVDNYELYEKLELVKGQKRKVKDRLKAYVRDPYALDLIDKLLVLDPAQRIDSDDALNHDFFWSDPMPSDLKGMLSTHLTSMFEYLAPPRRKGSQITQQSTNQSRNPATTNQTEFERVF
T2 sequence (O60563 whole entry partner): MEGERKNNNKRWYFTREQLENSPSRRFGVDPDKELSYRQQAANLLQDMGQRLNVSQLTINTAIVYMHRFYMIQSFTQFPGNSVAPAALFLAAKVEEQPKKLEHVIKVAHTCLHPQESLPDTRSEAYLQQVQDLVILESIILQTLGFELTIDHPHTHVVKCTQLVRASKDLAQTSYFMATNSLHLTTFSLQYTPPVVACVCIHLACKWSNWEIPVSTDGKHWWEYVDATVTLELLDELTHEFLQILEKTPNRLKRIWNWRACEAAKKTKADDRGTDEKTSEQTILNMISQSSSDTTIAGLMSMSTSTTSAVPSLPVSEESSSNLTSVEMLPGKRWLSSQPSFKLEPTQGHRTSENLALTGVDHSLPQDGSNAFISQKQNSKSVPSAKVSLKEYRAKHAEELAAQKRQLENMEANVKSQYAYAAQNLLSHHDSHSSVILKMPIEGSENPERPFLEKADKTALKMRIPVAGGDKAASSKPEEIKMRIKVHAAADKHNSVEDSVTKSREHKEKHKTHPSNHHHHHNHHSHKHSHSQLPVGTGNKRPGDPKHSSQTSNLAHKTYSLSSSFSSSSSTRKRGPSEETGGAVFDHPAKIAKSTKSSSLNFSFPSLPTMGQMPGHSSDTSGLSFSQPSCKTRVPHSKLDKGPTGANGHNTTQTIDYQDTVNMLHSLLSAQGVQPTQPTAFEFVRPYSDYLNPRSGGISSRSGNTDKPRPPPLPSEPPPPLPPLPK
Procedure for CDK4-CYCLIND1: Inhibition assays were performed using microfluidic LabChip 300 Drug Discovery System from Caliper Life Sciences. […] The assay has a total volume of 10 μL consisting of 5 μL of enzyme and buffer and 5 μL of substrate and buffer. The test compounds were diluted in 100% dimethylsulfoxide (DMSO) using 3-fold dilution steps. […] Compounds were tested in a single well for each dilution and the final concentration of DMSO was maintained at 1%.
The assay buffer contained 100 mM HEPES, pH 7.5, 0.01% Triton X-100, 0.1% bovine serum albumin (BSA), 5 mM MgCl2; 1 mM dithiothreitol (DTT), 10 μM sodium orthovanadate, and 10 μM β-glycerophosphate.
The assay was conducted by adding 5 μL of enzyme, adenosine triphosphate (ATP) and buffer to an assay plate. A 100 nL aliquot of the diluted compounds were added to the plate. The assay was initiated by the addition of 5 μL of phosphoenolpyruvate substrate (PEP) in buffer. […] The reaction was terminated by the addition of EDTA. The plates were analyzed using a Caliper LabChip 3000.

Turning to `CN1CCN(c2ccc(Nc3ncc4c(n3)N(C3CCCC3)C3(CC(=O)NC3=O)C4)cc2)CC1` (single isomer, unassigned) [Compound C136, 7′-cyclopentyl-2′-((4-(4-methylpiperazin-1-yl)phenyl)amino)-5′,7′-dihydrospiro[pyrrolidine-3,6′-pyrrolo[2,3-d]pyrimidine]-2,5-dione], the IC50 amounted to 1540 nM against CDK2-CYCLINA (Table 3a); 1540 nM against CDK2-CYCLINA (Table 3b); 80.5 nM on CDK9-CYCLINT1; 1270 nM at CDK1/B (Table 3a); 1270 nM against CDK1/B (Table 3b); 5740 nM on CDK7 CyclinH (Table 3a). Besides, the IC50 at CDK7 CyclinH (Table 3b) stood at 5740 nM; on CDK4-CYCLIND1 (setting [1]) it was 0.0257 µM; on CDK4-CYCLIND1 (setting [2]), 0.0257 µM.

Take `CN1CCN(c2ccc(Nc3ncc4c(n3)N(C3CCCC3)C3(CC(=O)NC3=O)C4)cc2)CC1` (single isomer, unassigned) [Compound C137, 7′-cyclopentyl-2′-((4-(4-methylpiperazin-1-yl)phenyl)amino)-5′,7′-dihydrospiro[pyrrolidine-3,6′-pyrrolo[2,3-d]pyrimidine]-2,5-dione]: the IC50 against CDK2-CYCLINA (Table 3a) was 3330 nM; against CDK2-CYCLINA (Table 3b), 3330 nM; at CDK9-CYCLINT1 (setting [3]) it was 367 nM; against CDK1/B (Table 3a), 1650 nM; on CDK1/B (Table 3b), 1650 nM; at CDK7 CyclinH (Table 3a), 585 nM. For the same compound, the IC50 at CDK7 CyclinH (Table 3b) is 585 nM; at CDK4-CYCLIND1 (setting [1]) it was 0.202 µM; on CDK4-CYCLIND1 (setting [2]) it was 0.202 µM.

On to `CN1CCN(c2ccc(Nc3ncc4c(n3)N(C3CCCC3)C3(CCNC3=O)C4)cc2F)CC1` (single isomer, unassigned) [Compound C197, 7′-cyclopentyl-2′-((3-fluoro-4-(4-methylpiperazin-1-yl)phenyl)amino)-5′,7′-dihydrospiro[pyrrolidine-3,6′-pyrrolo[2,3-d]pyrimidin]-2-one], for which the IC50 was determined as 0.258 µM against CDK6-CYCLIND3 (CDK6 CyclinD3 IC50 (μM), Table 3a); 0.258 µM against CDK6-CYCLIND3 (CDK6 CyclinD3 IC50 (μM), Table 3b); 2100 nM against CDK2-CYCLINA (Table 3a); 2100 nM against CDK2-CYCLINA (Table 3b); 46.6 nM at CDK9-CYCLINT1; 22100 nM against CDK7 CyclinH (Table 3a). For the same compound, the IC50 against CDK7 CyclinH (Table 3b) is 22100 nM; on CDK4-CYCLIND1 (setting [1]) it was 0.0517 µM and 0.028 µM; on CDK4-CYCLIND1 (setting [2]), 0.0517 µM and 0.028 µM.

Take `CN(C)[C@H]1CCN(c2ccc(Nc3ncc4c(n3)N(C3CCCC3)C(=O)C43CCNC3=O)cc2F)C1` (stereo partly drawn) [Compound C105, 7′-cyclopentyl-2′-((4-((S)-3-(dimethylamino)pyrrolidin-1-yl)-3-fluorophenyl)amino)spiro[pyrrolidine-3,5′-pyrrolo[2,3-d]pyrimidine]-2,6′(7′H)-dione]: the concentration for half-maximal inhibition (IC50) was determined as 29.7 µM at CDK6-CYCLIND3 (setting [4]) and 11.8 µM on CDK4-CYCLIND1 (setting [5]).

With `O=C1NCCC12C(=O)N(C1CCCC1)c1nc(Nc3ccc(N4CCC(N5CCOCC5)CC4)c(F)c3)ncc12` (centres unmarked) [Compound C106, 7′-cyclopentyl-2′-((3-fluoro-4-(4-morpholinopiperidin-1-yl)phenyl)amino)spiro[pyrrolidine-3,5′-pyrrolo[2,3-d]pyrimidine]-2,6′(7′H)-dione], the IC50 on CDK6-CYCLIND3 (setting [4]) was 14.7 µM; on CDK4-CYCLIND1 (setting [5]), 7.35 µM.

On to `O=C1NCCC12Cc1cnc(Nc3ccc(N4CC5(CNC5)C4)c(F)c3)nc1N2C1CCCC1` (centres unmarked) [Compound C107, 7′-cyclopentyl-2′-((3-fluoro-4-(2,6-diazaspiro[3.3]heptan-2-yl)phenyl)amino)-5′,7′-dihydrospiro[pyrrolidine-3,6′-pyrrolo[2,3-d]pyrimidin]-2-one], for which the 50% inhibitory concentration (IC50) worked out at 0.335 µM at CDK6-CYCLIND3 (setting [4]) and 0.0866 µM against CDK4-CYCLIND1 (setting [5]).

On to `CN(C)CCOc1ccc(Nc2ncc3c(n2)N(C2CCCC2)C2(CCNC2=O)C3)cc1` (centres unmarked) [Compound C108, 7′-cyclopentyl-2′-((4-(2-(dimethylamino)ethoxy)phenyl)amino)-5′,7′-dihydrospiro[pyrrolidine-3,6′-pyrrolo[2,3-d]pyrimidin]-2-one], for which the IC50 against CDK2-CYCLINA (Table 3a) is more than 10000 nM; against CDK2-CYCLINA (Table 3b) it was more than 10000 nM; at CDK9-CYCLINT1 (setting [3]) it was 21 nM; on CDK1/B (Table 3a), 6350 nM; against CDK1/B (Table 3b), 6350 nM; against CDK7 CyclinH (Table 3a), more than 10000 nM. Moreover, the figures for the half-maximal inhibitory concentration (IC50) against CDK7 CyclinH (Table 3b), on CDK4-CYCLIND1 (setting [1]) and at CDK4-CYCLIND1 (setting [2]) were more than 10000 nM, 0.124 µM and 0.124 µM, respectively.

Consider `CN1CCN(c2ccc(Nc3ncc4c(n3)N(C3CCCC3)C3(CCNC3=O)C4)cc2)CC1` (centres unmarked) [Compound C115, 7′-cyclopentyl-2′-((4-(4-methylpiperazin-1-yl)phenyl)amino)-5′,7′-dihydrospiro[pyrrolidine-3,6′-pyrrolo[2,3-d]pyrimidin]-2-one], for which the IC50 against CDK2-CYCLINA (Table 3a) was more than 10000 nM; against CDK2-CYCLINA (Table 3b), more than 10000 nM; at CDK9-CYCLINT1 (setting [3]), 149 nM; on CDK1/B (Table 3a), 9110 nM; against CDK1/B (Table 3b) it was 9110 nM; against CDK7 CyclinH (Table 3a), more than 10000 nM. Besides, the IC50 against CDK7 CyclinH (Table 3b) is more than 10000 nM; on CDK4-CYCLIND1 (setting [1]), 0.116 µM; on CDK4-CYCLIND1 (setting [2]) it was 0.116 µM.

As for `CC(C)N1CCN(c2ccc(Nc3ncc4c(n3)N(C3CCCC3)C3(CCNC3=O)C4)cc2F)CC1` (centres unmarked) [Compound C118, 7′-cyclopentyl-2′-((3-fluoro-4-(4-isopropylpiperazin-1-yl)phenyl)amino)-5′,7′-dihydrospiro[pyrrolidine-3,6′-pyrrolo[2,3-d]pyrimidin]-2-one], the IC50 was 4900 nM against CDK2-CYCLINA (Table 3a); 4900 nM against CDK2-CYCLINA (Table 3b); 16 nM at CDK9-CYCLINT1 (setting [3]); 3820 nM on CDK1/B (Table 3a); 3820 nM on CDK1/B (Table 3b); more than 10000 nM against CDK7 CyclinH (Table 3a). In addition, the IC50 on CDK7 CyclinH (Table 3b) is more than 10000 nM; at CDK4-CYCLIND1 (setting [1]), 0.0264 µM; on CDK4-CYCLIND1 (setting [2]), 0.0264 µM.

`Cc1cc(Nc2ncc3c(n2)N(C2CCCC2)C2(CCNC2=O)C3)ccc1N1CCN(C(C)C)CC1` (centres unmarked) [Compound C121, 7′-cyclopentyl-2′-((4-(4-isopropylpiperazin-1-yl)-3-methylphenyl)amino)-5′,7′-dihydrospiro[pyrrolidine-3,6′-pyrrolo[2,3-d]pyrimidin]-2-one]: the IC50 against CDK2-CYCLINA (Table 3a) is more than 10000 nM; on CDK2-CYCLINA (Table 3b) it was more than 10000 nM; on CDK9-CYCLINT1 (setting [3]), 132 nM; against CDK1/B (Table 3a) it was more than 10000 nM; at CDK1/B (Table 3b), more than 10000 nM; on CDK7 CyclinH (Table 3a) it was more than 10000 nM. In addition, the results for the IC50 at CDK7 CyclinH (Table 3b), at CDK4-CYCLIND1 (setting [1]) and on CDK4-CYCLIND1 (setting [2]) were more than 10000 nM, 0.374 µM and 0.374 µM, respectively.

As to `CC(C)N1CCN(c2ccc(Nc3ncc4c(n3)N(C3CCCC3)C3(CC(=O)NC3=O)C4)cc2)CC1` (centres unmarked) [Compound C134, 7′-cyclopentyl-2′-((4-(4-isopropylpiperazin-1-yl)phenyl)amino)-5′,7′-dihydrospiro[pyrrolidine-3,6′-pyrrolo[2,3-d]pyrimidine]-2,5-dione], the IC50 on CDK2-CYCLINA (Table 3a) was found to be 2280 nM; against CDK2-CYCLINA (Table 3b), 2280 nM; on CDK1/B (Table 3a), 1780 nM; against CDK1/B (Table 3b) it was 1780 nM; against CDK7 CyclinH (Table 3a), 8100 nM; against CDK7 CyclinH (Table 3b), 8100 nM.

As for `CN1CCN(c2ccc(Nc3ncc4c(n3)N(C3CCCC3)C3(CC(=O)NC3=O)C4)cc2F)CC1` (centres unmarked) [Compound C198, 7′-cyclopentyl-2′-((3-fluoro-4-(4-methylpiperazin-1-yl)phenyl)amino)-5′,7′-dihydrospiro[pyrrolidine-3,6′-pyrrolo[2,3-d]pyrimidine]-2,5-dione], the IC50 at CDK2-CYCLINA (Table 3a) turned out to be 247 nM; on CDK2-CYCLINA (Table 3b), 247 nM; on CDK7 CyclinH (Table 3a) it was 168 nM; on CDK7 CyclinH (Table 3b), 168 nM.

`CN1CCN(c2ccc(Nc3ncc4c(n3)N(C3CCCCC3)C3(CCNC3=O)C4)cc2)CC1` (centres unmarked) [Compound C199, 7′-cyclohexyl-2′-((4-(4-methylpiperazin-1-yl)phenyl)amino)-5′,7′-dihydrospiro[pyrrolidine-3,6′-pyrrolo[2,3-d]pyrimidin]-2-one]: the IC50 at CDK6-CYCLIND3 (setting [6]) turned out to be 0.103 µM; at CDK6-CYCLIND3 (setting [7]), 0.103 µM; at CDK4-CYCLIND1 (setting [1]), 0.0332 µM; on CDK4-CYCLIND1 (setting [2]), 0.0332 µM.

On to `CN1CCN(c2ccc(Nc3ncc4c(n3)N(C3CCCCC3)C3(CCNC3=O)C4)cc2F)CC1` (centres unmarked) [Compound C200, 7′-cyclohexyl-2′-((3-fluoro-4-(4-methylpiperazin-1-yl)phenyl)amino)-5′,7′-dihydrospiro[pyrrolidine-3,6′-pyrrolo[2,3-d]pyrimidin]-2-one], for which the IC50 at CDK6-CYCLIND3 (setting [6]) was 0.069 µM; at CDK6-CYCLIND3 (setting [7]), 0.069 µM; on CDK4-CYCLIND1 (setting [1]) it was 0.0138 µM and 0.0102 µM; at CDK4-CYCLIND1 (setting [2]) it was 0.0138 µM and 0.0102 µM.

As to `CN1CCN(c2ccc(Nc3ncc4c(n3)N(C3CCCCC3)C3(CCNC3=O)C4)cn2)CC1` (centres unmarked) [Compound C201, 7′-cyclohexyl-2′-((6-(4-methylpiperazin-1-yl)pyridin-3-yl)amino)-5′,7′-dihydrospiro[pyrrolidine-3,6′-pyrrolo[2,3-d]pyrimidin]-2-one], the IC50 came out at 0.115 µM at CDK6-CYCLIND3 (setting [6]), 0.115 µM at CDK6-CYCLIND3 (setting [7]), 0.0393 µM on CDK4-CYCLIND1 (setting [1]) and 0.0393 µM at CDK4-CYCLIND1 (setting [2]).

For `CN1CCN(c2ccc(Nc3ncc4c(n3)N(C3CCCCC3)C3(CCNC3=O)C4)nc2)CC1` (centres unmarked) [Compound C202, 7′-cyclohexyl-2′-((5-(4-methylpiperazin-1-yl)pyridin-2-yl)amino)-5′,7′-dihydrospiro[pyrrolidine-3,6′-pyrrolo[2,3-d]pyrimidin]-2-one], the IC50 was found to be 0.704 µM on CDK6-CYCLIND3 (setting [6]), 0.704 µM at CDK6-CYCLIND3 (setting [7]), 0.368 µM on CDK4-CYCLIND1 (setting [1]) and 0.368 µM at CDK4-CYCLIND1 (setting [2]).

One may read the IC50 as the concentration that gives 50% inhibition.
